Literature values, collected in patent publication US8748481B2, “Method for treating gastrointestinal disorder” (Sucampo AG, priority 2004, dated 2014).
Structures can show the parent of a compound that is named as a salt.

Tested on: patients with IBS with constipation / chronic idiopathic constipation
Conditions: cited from earlier work

[H]/N=C(/NCCCCC)N/N=C/c1c[nH]c2ccc(OC)cc12 [Zelnorm®, tegaserod maleate]
Return of symptoms after stopping (after patients stop taking the drug): may return within 1 or 2 weeks | Treatment effect over placebo in patients aged 65 years and older (subgroup analyses): no significant treatment effect | Response rates vs. placebo in males (two randomized, placebo-controlled, double-blind studies enrolling 288 males): no significant differences
